Experimental data: patent US20260144879A1, “ANTI-VIRAL AND HEPATIC-TARGETED DRUGS” (AI-BIOPHARMA, priority 2019, published 2026)

Assays:
[1] = tested on: HBV (genotype D, serotype ayw, Galibert's strain); test: Quantification of virion associated secreted HBV DNA in supernatant of HBV-infected differentiated HepaRG (dHepaRG) cells by qPCR, % of replication vs DMSO; type: cell-based, hepatitis B virus; conditions: 1 μM compound, 7 days treatment, DMSO = 100%; for activity at 1 µM: Hepatitis B virus, HepaRG, 168 h, read-out: dHepaRG HBV % of replication at 1 μM compared to DMSO
Method: (§1) From Methods in Lucifora J. et al. (Direct antiviral properties of TLR ligands against HBV replication in immune-competent hepatocytes, Science Scientific Reports, 2018, 8:5390): • 1) HepaRG cells were cultured, as described previously by Gripon P. et al. (Infection of a human hepatoma cell line by hepatitis B virus. Proc Natl Acad Sci USA, 2002, 99, p 15655-15660) on pages 15655 and 15656, in Williams E medium supplemented with 10% fetal calf serum, 50 U penicillin/streptomycin (Gibco-Invitrogen) ml^−1, […] ml^−1 and 5×10^−7 M hydrocortisone hemisuccinate (Roche Diagnostics and Boehringer Mannheim, respectively). The cell cultures were maintained in a 5% CO2 atmosphere at 37° C. During the proliferation phase, culture medium was renewed every 2 days. For differentiation and infection, cells were maintained for 2 weeks in standard medium and then for at least 2 more weeks in medium supplemented with 1.8-2.0% DMSO (Sigma). • 2) Primary Human Hepatocytes (PHH) were freshly prepared from human liver resection as previously described by Lecluyse, E. L. & Alexandre, E. (Isolation and culture of primary hepatocytes from resected human liver tissue. Methods Mol Biol, 2010, 640, p 57-82, https://doi.org/10.1007/978-1-60761-688-7_3) on page 63 paragraph 3. “Methods” from section 3.1. through 3.6.2. page 77. All experimental procedures were conducted in conformity with French laws and regulations and were approved by the National Ethics Committee. • 3) Cell viability was measured by both neutral red and MTS (CellTiter 96 Aqueous One Solution cell proliferation assay; Promega) tests. • 4) HBV inoculum (genotype D, serotype ayw, Galibert's strain referred as NC_003977.2 at NCBI) was prepared from HepAD38 (see Ladner, S. K. et al., Inducible expression of human hepatitis B virus (HBV) in stably transfected hepatoblastoma cells: a novel system for screening potential inhibitors of HBV replication. Antimicrob Agents Chemother, 1997, 41, p 1715-1720) supernatants by polyethylene-glycol-MW-8000 (PEG8000, SIGMA) precipitation (8% final) as previously described by Luangsay, S. et al. (Early inhibition of hepatocyte innate responses by hepatitis B virus. J Hepatol, 2015, 63, p 1314-1322, https://doi.org/10.1016/j.jhep.2015.07.014).
(§2) Viral stocks with titer reaching at least 1×10^10 viral genome equivalent (vge)/mL were tested endotoxin free.
(§3) Differentiated HepaRG (dHepaRG) or PHH were infected by HBV at a multiplicity of infection of 100-200 vge/cell in culture medium containing 4% PEG 8000 (Sigma) for 16 h at 37° C. in 12- or six-well plates. At the end of the incubation period, cells were washed once with medium and then cultured in Williams E medium containing DMSO as indicated. In general infection was left for 7 days before any treatment was started, to allow replication reaching its maximum. • 5) Infected cell treatment with compounds of interest: • 5a: After 7 days of infection with the virus (day 0 to day 7), the dHepaRG cells were treated (3 treatments: day 7, day 10 and day 12) with a […] of the tested compound (diluted with sterile water from a 10 mM stock DMSO solution) or DMSO as reference negative control for 7 more days. • 5b: After 4 days of infection with the virus (day 0 to day 4), the PHH cells were treated (3 treatments: day 4, day 7 and day 9) with a […] of the tested compound (diluted with sterile water from a 10 mM stock DMSO solution) for 7 more days. • 6) Quantification of virion associated secreted HBV DNA in cell culture supernatant:
(§4) At the end of the experiment (7 days treatment) the supernatant of infected and treated cells (either dHepaRG or PHH or others) is collected. It is diluted 1/4 into sterile water (molecular biology quality) then treated for 30 minutes with RNAse (10 unit) and DNAse (10 unit) to remove non encapsidated material. […]

[2] = tested on: HBV (genotype D, serotype ayw, Galibert's strain); test: Quantification of virion associated secreted HBV DNA in supernatant of HBV-infected Primary Human Hepatocytes (PHH) by qPCR, % of replication vs DMSO; type: cell-based, hepatitis B virus; conditions: 1 μM compound, 7 days treatment, DMSO = 100%; for activity at 1 µM: Hepatitis B virus, Hepatocyte, 168 h, (*) n = 1, read-out: PHH HBV % of replication at 1 μM compared to DMSO
Method: as §1, §2, §3, §4

Row | SMILES | activity at 1 µM [1] [%] | activity at 1 µM [2] [%] | dHepaRG HBV % of replication at 1 μM compared to DMSO [1] | PHH HBV % of replication at 1 μM compared to DMSO ([2]; (*) n = 1)
1 | CC(C)OC(=O)CC1COP(=O)(CO[C@H](C)Cn2cnc3c(N)ncnc32)OC1 (single isomer, unassigned) [Example 3a] | ≤ 30 | ≤ 30 | – | –
2 | CCOC(=O)CC1COP(=O)(CO[C@H](C)Cn2cnc3c(NC(=O)CC(C)C)ncnc32)OC1 (stereo partly drawn) [Example 17, (R)-ethyl 2-(2-(((1-(6-(3-methylbutanamido)-9H-purin-9-yl)propan-2-yl)oxy)methyl)-2-oxo-1,3,2-dioxaphosphinan-5-yl)acetate] | 30 to 50 | ≤ 30 | – | –
3 | Nc1ncnc2c1ncn2CCOCP(=O)(O)O [ADF] | – | – | ++ (50% < ++ ≤ 80%) | ++ (50% < ++ ≤ 80%)
4 | CCCCCCOC(=O)CC1COP(=O)(CO[C@H](C)Cn2cnc3c(N)ncnc32)OC1 (stereo partly drawn) [Example 5b, (R)-hexyl 2-(2-(((1-(6-amino-9H-purin-9-yl)propan-2-yl)oxy)methyl)-2-oxo-1,3,2-dioxaphosphinan-5-yl)acetate] | 30 to 50 | ≤ 30 | – | –
5 | CCOC(=O)CC1COP(=O)(CO[C@H](C)Cn2cnc3c(NC(C)=O)ncnc32)OC1 (stereo partly drawn) [Example 13, (R)-ethyl 2-(2-(((1-(6-acetamido-9H-purin-9-yl)propan-2-yl)oxy)methyl)-2-oxo-1,3,2-dioxaphosphinan-5-yl)acetate] | 50 to 80 | ≤ 30 | – | –
6 | C[C@H](Cn1cnc2c(N)ncnc21)OCP1(=O)OCC(CC(=O)OC2CCCC2)CO1 (stereo partly drawn) [Example 5, (R)-cyclopentyl 2-(2-(((1-(6-amino-9H-purin-9-yl)propan-2-yl)oxy)methyl)-2-oxo-1,3,2-dioxaphosphinan-5-yl)acetate] | ≤ 30 | ≤ 30 | – | –
7 | CC1COP(=O)(CO[C@H](C)Cn2cnc3c(N)ncnc32)OC1 (stereo partly drawn) [Example 5c, (R)-2-(((1-(6-amino-9H-purin-9-yl)propan-2-yl)oxy)methyl)-5-methyl-1,3,2-dioxaphosphinane 2-oxide] | > 80 | 30 to 50 | – | –
8 | CCOC(=O)CCC1COP(=O)(CO[C@H](C)Cn2cnc3c(N)ncnc32)OC1 (stereo partly drawn) [Example 7, (R)-ethyl 3-(2-(((1-(6-amino-9H-purin-9-yl)propan-2-yl)oxy)methyl)-2-oxo-1,3,2-dioxaphosphinan-5-yl)propanoate] | 50 to 80 | 50 to 80 | – | –
9 | CCOC(=O)CC1COP(=O)(CO[C@H](C)Cn2cnc3c(NC(=O)CC)ncnc32)OC1 (stereo partly drawn) [Example 15, (R)-ethyl 2-(2-oxo-2-(((1-(6-propionamido-9H-purin-9-yl)propan-2-yl)oxy)methyl)-1,3,2-dioxaphosphinan-5-yl)acetate] | ≤ 30 | ≤ 30 | – | –
10 | C[C@H](Cn1cnc2c(N)ncnc21)OCP1(=O)OCC(CCC(=O)OC2CCCC2)CO1 (stereo partly drawn) [Example 10, (R)-cyclopentyl 3-(2-(((1-(6-amino-9H-purin-9-yl)propan-2-yl)oxy)methyl)-2-oxo-1,3,2-dioxaphosphinan-5-yl)propanoate] | 50 to 80 | ≤ 30 | – | –
11 | CCOC(=O)CC1COP(=O)(CO[C@H](C)Cn2cnc3c(N)ncnc32)OC1 (stereo partly drawn) [Example 2, (R)-ethyl 2-(2-(((1-(6-amino-9H-purin-9-yl)propan-2-yl)oxy)methyl)-2-oxo-1,3,2-dioxaphosphinan-5-yl)acetate] | ≤ 30 | ≤ 30 | – | –
12 | CC(C)OC(=O)CCC1COP(=O)(CO[C@H](C)Cn2cnc3c(N)ncnc32)OC1 (stereo partly drawn) [Example 8, (R)-isopropyl 3-(2-(((1-(6-amino-9H-purin-9-yl)propan-2-yl)oxy)methyl)-2-oxo-1,3,2-dioxaphosphinan-5-yl)propanoate] | 50 to 80 | 50 to 80 | – | –
13 | CCOC(=O)CC1COP(=O)(CO[C@H](C)Cn2cnc3c(NC(=O)C(C)C)ncnc32)OC1 (stereo partly drawn) [Example 16, (R)-ethyl 2-(2-(((1-(6-isobutyramido-9H-purin-9-yl)propan-2-yl)oxy)methyl)-2-oxo-1,3,2-dioxaphosphinan-5-yl)acetate] | ≤ 30 | ≤ 30 | – | –
14 | CC(C)OC(=O)CCC1COP(=O)(CO[C@H](C)Cn2cnc3c(NC(=O)c4ccccc4)ncnc32)OC1 (stereo partly drawn) [Example 25, (R)-isopropyl 3-(2-(((1-(6-benzamido-9H-purin-9-yl)propan-2-yl)oxy)methyl)-2-oxo-1,3,2-dioxaphosphinan-5-yl)propanoate] | 50 to 80 | 50 to 80 | – | –
15 | CCOC(=O)CC1COP(=O)(CO[C@H](C)Cn2cnc3c(NC(=O)c4ccccc4)ncnc32)OC1 (stereo partly drawn) [Example 19, (R)-ethyl 2-(2-(((1-(6-benzamido-9H-purin-9-yl)propan-2-yl)oxy)methyl)-2-oxo-1,3,2-dioxaphosphinan-5-yl)acetate] | ≤ 30 | ≤ 30 | – | –
16 | COC(=O)CCC1COP(=O)(CO[C@H](C)Cn2cnc3c(N)ncnc32)OC1 (stereo partly drawn) [Example 6, (R)-methyl 3-(2-(((1-(6-amino-9H-purin-9-yl)propan-2-yl)oxy)methyl)-2-oxido-1,3,2-dioxaphosphinan-5-yl)propanoate] | 50 to 80 | > 80 | – | –
17 | CCOC(=O)CC1COP(=O)(CO[C@H](C)Cn2cnc3c(N(C(C)=O)C(C)=O)ncnc32)OC1 (stereo partly drawn) [Example 14, (R)-ethyl 2-(2-(((1-(6-(N-acetylacetamido)-9H-purin-9-yl)propan-2-yl)oxy)methyl)-2-oxo-1,3,2-dioxaphosphinan-5-yl)acetate] | 50 to 80 | 50 to 80 | – | –
18 | CC(C)OC(=O)CC1COP(=O)(CO[C@H](C)Cn2cnc3c(NC(=O)C(C)C)ncnc32)OC1 (stereo partly drawn) [Example 21a, (R)-isopropyl 2-(2-(((1-(6-isobutyramido-9H-purin-9-yl)propan-2-yl)oxy)methyl)-2-oxido-1,3,2-dioxaphosphinan-5-yl)acetate] | ≤ 30 | ≤ 30 | – | –
19 | COC(=O)CC1COP(=O)(CO[C@H](C)Cn2cnc3c(N)ncnc32)OC1 (stereo partly drawn) [Example 1, (R)-methyl 2-(2-(((1-(6-amino-9H-purin-9-yl)propan-2-yl)oxy)methyl)-2-oxo-1,3,2-dioxaphosphinan-5-yl)acetate] | ≤ 30 | ≤ 30 | – | –
